The source of these data is US5288720A, “Angiotensin II receptor blocking 2,3,6 substituted quinazolinones” (American Cyanamid Company, priority 1993, dated 1994).

One assay addresses T1, Angiotensin II Receptor (Bos taurus, UniProt P25104).
T1 construct: The brownish tissue forming the adrenal cortex is scraped off and finely minced with scissors before homogenization; from tissue; host or cells: beef adrenal cortex, microsomal membranes (100,000×g pellet); fresh glands from a local slaughter house (Maxwell-Cohen)
T1 sequence (P25104 1-359): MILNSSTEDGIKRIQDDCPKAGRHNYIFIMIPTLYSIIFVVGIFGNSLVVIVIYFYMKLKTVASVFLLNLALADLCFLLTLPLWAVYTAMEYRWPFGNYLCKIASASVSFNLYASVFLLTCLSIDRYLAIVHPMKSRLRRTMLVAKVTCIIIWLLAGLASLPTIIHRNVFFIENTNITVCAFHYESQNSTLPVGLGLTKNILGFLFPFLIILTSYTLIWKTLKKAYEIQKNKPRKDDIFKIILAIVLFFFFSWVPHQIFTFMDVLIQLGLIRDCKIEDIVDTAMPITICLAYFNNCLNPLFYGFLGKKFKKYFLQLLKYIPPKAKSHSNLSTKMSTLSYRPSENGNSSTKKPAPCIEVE
Description: Receptor Binding Assay: Binding of [^125 I](Sar^1,Ile^8)AngII to beef adrenal cortex membranes. The conditions noted are these: 60 min, room temperature. From the text:
Beef adrenals are obtained from a local slaughter house (Maxwell-Cohen). [^125 […]. 2200 Ci/mmole, is purchased from Dupont (NEN®, Boston, Mass.). All unlabeled AngII analogs, Dimethylsulfoxide (DMSO), nucleotides, bovine serum albumin (BSA) are purchased from Sigma Chemical Co., St. Louis, Mo. U.S.A. […] Approximately sixteen (16) to twenty (20) beef adrenal glands are processed as follows: fresh adrenal glands received on crushed ice are cleaned of fatty tissues and the tough membranes encapsulating the glands are removed and discarded. The brownish tissue forming the adrenal cortex is scraped off and finely minced with scissors before homogenization. Care is taken to avoid contamination with medullary tissue during dissection. The scraped cortices are suspended in twenty volumes of an ice-cold buffer medium consisting of 10 mM Tris.HCl (pH 7.4 at 22° C.) and containing 1.0 mM EDTA and 0.2M sucrose. Unless otherwise indicated, all subsequent operations are done at 4° C. […] The homogenate is centrifuged first at low speed (3,000×g) for 10 minutes. […] This P2 pellet is discarded and the liquid phase is carefully decanted off in clean centrifuge tubes and recentrifuged at high speed (100,000×g) for 60 minutes. The translucent final pellet is harvested and combined in a small volume (20-50.0 ml) of 50.0 mM Tris.HCl buffer, pH 7.2. A 100 ul aliquot is withdrawn and the protein content of the preparation is determined by the Lowry's method (Lowry, O. H., Rosebrough, […]. and Randall, R. J., Protein measurement with Folin phenol reagent. J. Biol. Chem., […], 265-275, 1951). The pelleted membrane is reconstituted in 50.0 mM Tris.HCl buffer containing 0.1 mM of phenylmethylsulfonyl fluoride (PMSF) to give approximately a protein concentration of 2.5 mg per ml of tissue suspension. […] Receptor Binding Assay: […] In competition studies, experimental compounds are diluted in dimethylsulfoxide (DMSO) and added in 20 ul to wells before the introduction of tissue membranes. […] Assays are performed in triplicate. The wells are left undisturbed for 60 minutes at room temperature. Following incubation, all wells are harvested at once with a Brandel® Harvester especially designed for a 96 well plate (Brandel® Biomedical Research & Development Labs. Inc., Gaithersburg, Md., U.S.A.). The filter discs are washed with 10×1.0 ml of cold 0.9% NaCl to remove unbound ligand. Presoaking the filter sheet in 0.1% polyethyleneimine in normal saline (PEI/Saline) greatly reduces the radioactivity retained by the filter blanks. This method is routinely used. The filters are removed from the filter grid and counted in a Parkard® Cobra Gamma Counter for 1 minutes. (Packard Instrument Co., Downers Grove, Ill, U.S.A.). The binding data are analyzed by the non-linear interactive "LUNDON-1" program (LUNDON SOFTWARE Inc., Cleveland, Ohio U.S.A.).

Assay [1] deals with ANGIOTENSIN II VASOPRESSOR RESPONSE
As to the kind of experiment: AII Challenge: blockade of angiotensin II vasopressor response in conscious SHR. It is filed as in vivo, rat (Conscious Male Okamoto-Aoki SHR). Particulars: SHR n=2, 3 mg/kg i.v. An excerpt:
By administering a compound of this invention to a rat, and then challenging with angiotensin II, a blockage of the vasopressor response is realized.
Conscious Male Okamoto-Aoki SHR, 16-20 weeks old, weighing approximately 330 g are purchased from Charles River Labs (Wilmington, Mass.). Conscious rats are restrained in a supine position with elastic tape. The area at the base of the tail is locally anesthetized by subcutaneous infiltration with 2% procaine. The ventral caudal artery and vein are isolated, and a cannula made of polyethylene (PE) 10-20 tubing (fused together by heat) is passed into the lower abdominal aorta and vena cava, respectively. The cannula is secured, heparinized (1,000 I.U./ml), sealed and the wound is closed. The animals are placed in plastic restraining cages in an upright position. The cannula is attached to a Statham P23Db pressure transducer, and pulsatile blood pressure is recorded to 10-15 minutes with a Gould Brush recorder. (Chan et al., (Drug Development Res., 18:75-94, 1989).
Angiotensin II (human sequence, Sigma Chem. Co., St. Louis, MO) of 0.05 and 0.1 ug/kg i.v. is injected into all rats (predosing response). Then a test compound, vehicle or a known angiotensin II antagonist is administered i.v., i.p. or orally to each set of rats. The two doses of angiotensin II are given to each rat again at 30, 60, 90, 120, 180, 240 and 300 minutes post dosing the compound or vehicle. The vasopressor response of angiotensin II is measured for the increase in systolic blood pressure in mmHg. The percentage of antagonism or blockade of the vasopressor response of angiotensin II by a compound is calculated using the vasopressor response (increase in systolic blood pressure) of angiotensin II of each rat predosing the compound as 100%. A compound is considered active if at 30 mg/kg i.v. it antagonized at least 50% of the response.

Setting [2] is: AII 0.01 mcg/kg IV (so in the source), 30 min post dose.
Setting [3] is: AII 0.05 mcg/kg IV, 30 min post dose.
The mark [4] stands for this setting: AII 0.05 mcg/kg IV, 60 min post dose.
[5] abbreviates: AII 0.05 mcg/kg IV, 90 min post dose.
The mark [6] stands for this setting: AII 0.05 mcg/kg IV, 120 min post dose.
The mark [7] stands for this setting: AII 0.05 mcg/kg IV, 180 min post dose.
[8] abbreviates: AII 0.05 mcg/kg IV, 240 min post dose.
The mark [9] stands for this setting: AII 0.05 mcg/kg IV, 300 min post dose.
[10] abbreviates: AII 0.1 mcg/kg IV, 60 min post dose.
Where [11] appears, read: AII 0.1 mcg/kg IV, 90 min post dose.
Setting [12] is: AII 0.1 mcg/kg IV, 120 min post dose.
[13] abbreviates: AII 0.1 mcg/kg IV, 180 min post dose.
[14] abbreviates: AII 0.1 mcg/kg IV, 240 min post dose.
[15] abbreviates: AII 0.1 mcg/kg IV, 300 min post dose.

Each structure is given as a SMILES string.

By IC50 is commonly meant the concentration needed to halve the response being measured. A lower IC50 goes with inhibition by little substance. `CCCCc1nc2ccc(C(O)C3CCCS3(=O)=O)cc2c(=O)n1Cc1ccc(-c2ccccc2-c2nn[nH]n2)cc1` (single isomer, unassigned; isomer 1) [Example 15, 2-Butyl-6-[hydroxy(tetrahydro-2-thienyl)methyl-3-[[2'-(1H-tetrazol-5-yl)[1,1'-biphenyl]-4-yl]methyl]-4(3H)-quinazolinone S,S-dioxide isomer 1] returned a half-maximal inhibitory concentration (IC50) on Angiotensin II Receptor of 110 nM. Besides, the “% Inhibition of AII vasopressor response” value in assay [1] (setting [2]) worked out at 75%; in assay [1] (setting [3]), 88%; in assay [1] (setting [4]) it was 73%; in assay [1] (setting [5]), 83%; in assay [1] (setting [6]), 32%; in assay [1] (setting [7]), 42%. The “% Inhibition of AII vasopressor response” value is 38% in assay [1] (setting [8]); 26% in assay [1] (setting [9]); 63% in assay [1] (setting [10]); 54% in assay [1] (setting [11]); 45% in assay [1] (setting [12]); 50% in assay [1] (setting [13]). Also, the “% Inhibition of AII vasopressor response” value is 50% in assay [1] (setting [14]) and 45% in assay [1] (setting [15]). The “Average Change (systolic blood pressure response to AII)” value (“Average Change” below) in assay [1] (setting [2]) is recorded as 12.5 mmHg; in assay [1] (setting [3]), 5 mmHg; in assay [1] (setting [4]) it was 11 mmHg; in assay [1] (setting [5]), 7 mmHg; in assay [1] (setting [6]) it was 27.5 mmHg; in assay [1] (setting [7]), 23.5 mmHg. The “Average Change” value in assay [1] (setting [8]) came out at 25 mmHg; in assay [1] (setting [9]) it was 30 mmHg; in assay [1] (setting [10]), 18.5 mmHg; in assay [1] (setting [11]), 23 mmHg; in assay [1] (setting [12]), 27.5 mmHg; in assay [1] (setting [13]), 25 mmHg. For the same compound, the “Average Change” value in assay [1] (setting [14]) is on record as 25 mmHg; in assay [1] (setting [15]) it was 27.5 mmHg.
`CCCCc1nc2ccc(C(O)C3CCCCN(C)C3=O)cc2c(=O)n1Cc1ccc(-c2ccccc2-c2nn[nH]n2)cc1` (single isomer, unassigned; isomer 1) [Example 54, 2-Butyl-6-[(hexahydro-1-methyl-2-oxo-1H-azepin-3-yl)hydroxymethyl]-3-[[2'-(1H-tetrazol-5-yl)[1,1'biphenyl]-4-yl]methyl-4-(3H)-quinazolinone isomer 1] gave an IC50 at Angiotensin II Receptor of 430 nM.
The same measure, in the same setting: then `CCCCc1nc2ccc(C(O)C3CCCCN(C)C3=O)cc2c(=O)n1Cc1ccc(-c2ccccc2-c2nn[nH]n2)cc1` (single isomer, unassigned; isomer 2) [Example 55, 2-Butyl-6-[(hexahydro-1-methyl-2-oxo-1H-azepin-3-yl)hydroxymethyl]-3-[[2'-(1H-tetrazol-5-yl)[1,1'-biphenyl]-4-yl]methyl-4(3H)quinazolinone isomer 2], with 150 nM.
Same read-out and setting: as for `CCCCc1nc2ccc(C(O)C3CCCO3)cc2c(=O)n1Cc1ccc(-c2ccccc2-c2nn[nH]n2)cc1` (centres unmarked) [Example 28], the figure is 130 nM.
